Columns and labels:
[1] = tested on: IMR-90 fibroblasts IR-SCs; assay: Cell viability assay (flow cytometry, PI); assay type: cell-based; conditions: Homo sapiens, IMR-90, 72 h
HREC IR-SCs = assay: Cell viability assay (flow cytometry, PI); assay type: cell-based; conditions: Homo sapiens, 72 h
pre-adipocytes IR-SCs = assay: Cell viability assay (flow cytometry, PI); assay type: cell-based; conditions: Homo sapiens; Pre-adipocyte, 72 h
WI-38 IR-SCs [2] = assay: Apoptosis analysis (Annexin-V/PI flow cytometry); assay type: cell-based, human; conditions: 2 µM, 72 h
Protocol: (§1) WI-38 NCs and SCs were treated with vehicle or 10 µM Q-VD-OPh (QVD, Cat. No. S7311, Selleckchem, Houston, TX, USA) for 4 h prior to the addition of vehicle or 2 µM EF24 for 72 h. The suspending cells were first harvested from the culture and then pooled with the adherent cells detached by 0.25% Trypsin-EDTA at 37°C for 5 min in 12 × 75 mm polystyrene round-bottom tubes (Cat. No. 352058, Falcon, Corning, NY, USA) containing complete DMEM medium. The cells were stained with Alexa Fluor 647-Annexin V (1: 50, Cat. No. 640912, BioLegend, San Diego, CA, USA) and PI (10 µg/mL, Cat. No. 421301, BioLegend, San Diego, CA, USA) at room temperature for 30 min. The stained cells were analyzed using a BD LSR II flow cytometer.

WI-38 NCs = assay: Apoptosis analysis (Annexin-V/PI flow cytometry); assay type: cell-based, human; conditions: 2 µM, 72 h
Protocol: as §1

Bcl-2 = assay: Western blotting of protein expression in WI-38 cells; assay type: cell-based, human; conditions: WI-38 IR-SCs, 0.5, 1 and 2 µM, 72 h; did not reach statistical significance
Protocol: (§2) After treatment with vehicle or EF24 at 0.5, 1 and 2 µM for 72 h, WI-38 NCs or IR-SCs were harvested in 1.5mL microcentrifuge tubes, and lysed in RIPA buffer with EDTA and EGTA (Cat. No. BP-115DG, Boston BioProducts, Ashland, MA, USA) supplemented with 1% protease inhibitor cocktail (Cat. No. P8340, Sigma-Aldrich, St. Louis, MO, USA) and 1% phosphatase inhibitor cocktail (Cat. No. P0044, Sigma-Aldrich, St. Louis, MO, USA). An equal amount of protein (30 µg/lane) from each cell extract was resolved on a precast gel (Mini-PROTEAN TGX™, Cat. No. 456-1094, Bio-Rad, Hercules, CA, USA). Proteins were blotted to a precut 0.2 µm PVDF membrane (Invitrolon™, Cat. No. LC2002, Life Technologies, Carlsbad, CA, USA) by electrophoresis. The membranes were blocked with 1X TBS-Tween (TBST, Cat. No. J77500, Affymetrix, Santan Clara, CA, USA) containing 5% non-fat dry milk (Cat. No. sc-2324, Santa Cruz Biotechnology, Dallas, TX, USA), and subsequently probed with primary antibodies at a predetermined optimal concentration overnight at 4°C. The primary antibodies including Bcl-xl (Cat. No. 2762), Mcl-1 (Cat. No. 5453), and Bcl-2 (Cat. No. 2872) and β-actin (Cat. No. 4970) were purchased from Cell Signaling Technology (Danvers, MA, USA). After washing with TBST for 3 times (10 min each time), the membranes were incubated with the secondary horse radish peroxidase (HRP)-linked antibody (Cat. No. 7074, Cell Signaling Technology, Danvers, MA, USA) for 2 h at room temperature. Following sufficient washing with TBST, the membranes were incubated with chemiluminescent HRP substrate (Immobilon™ Western, Cat. No. P36599, MilliporeSigma, Billerica, MA, USA) that consists of equal volume of luminol reagent and peroxide solution. The blotting membranes were recorded using autoradiography (SRX-101, Konica, Shinjuku, Tokyo, Japan). For the proteasome inhibition experiment, IR-SCs were treated with vehicle (0.1% DMSO) or 1 µM MG132 (Cat. No. S2619, Selleckchem, Houston, TX, USA) for 1 h prior to the incubation with EF24 at 0, 0.5, 1 and 2 µM for 72h.

Bcl-xl = assay: as above; assay type: cell-based, human; conditions: 72 h
Protocol: as §2

Mcl-1 = assay: as above; assay type: cell-based, human; conditions: WI-38 IR-SCs, 0.5, 1 and 2 µM, 72 h
Protocol: as §2

WI-38 IR-SCs [3] = assay: Combination treatment cell viability and coefficient of drug interaction (CDI); assay type: cell-based, human; conditions: 72 h
Protocol: Number of viable cells were quantified using flow cytometry as previously described with slight modifications. Specifically, NCs and SCs were incubated with vehicle (0.1% DMSO) or a test compound at indicated concentrations for 72 h. Following dissociation with 0.25% Trypsin-EDTA (Cat. No. 25200056, Thermo Fisher Scientific, Waltham, MA, USA) at 37°C for 5 min, the cells were harvested in 100 µl pre-cooled phosphate buffered saline (PBS, Cat. No. 20012027, Thermo Fisher Scientific, Waltham, MA, USA) containing 2% FBS and 100 ng/mL propidium iodide (PI, P4170, Sigma-Aldrich, St. Louis, MO, USA) and analyzed using flow cytometry (LSR II, BD Biosciences, San Jose, CA, USA). Percentage of viable cells were determined by counting the number of PI negative cells (viable cells) and then calculated as a ratio of control cells treated with vehicle. In addition, dose-response curves were generated for each compound, and the concentration for 50% of maximal effect (EC50 values) was calculated using GraphPad Prism 6.
The data were analyzed by analysis of variance (ANOVA) with GraphPad Prism 6 (GraphPad Software, La Jolla, CA, USA). […] To detect the synergistic senolytic activities of EF24 and ABT263, CDI was calculated as previously described.

Structure (SMILES): O=C1/C(=C/c2ccccc2F)CNC/C1=C\c1ccccc1F [EF24]
- EC50 [1]: 1720 nM
- EC50 (HREC IR-SCs): 1150 nM
- EC50 (pre-adipocytes IR-SCs): 5040 nM
- number of PI positive cells representing necrotic cells in IR-SCs (WI-38 IR-SCs [2]): not any significant changes
- number and percentage of Annexin-V positive apoptotic cells in IR-SCs (WI-38 IR-SCs [2]; compared to vehicle): significantly increased
- induction of apoptosis in NCs (WI-38 NCs): did not induce apoptosis
- levels of Bcl-2 in IR-SCs (Bcl-2): slightly reduced
- expression of Bcl-xl in IR-SCs (Bcl-xl; WI-38 IR-SCs, 0.5, 1 and 2 µM): significantly reduce
- expression of Bcl-xl in NCs (Bcl-xl; WI-38 NCs, 0.5, 1 and 2 µM): not in NCs
- expression of Mcl-1 in IR-SCs (Mcl-1): significantly reduce
- cell viability of IR-SCs, agent alone (WI-38 IR-SCs [3]): dose-dependently reduce

From article PMC6366974, “The curcumin analog EF24 is a novel senolytic agent” (Aging (Albany NY), 2019)
